Where “and” joins values, the source holds several entries; their conditions need not be identical. Equal entries are not always repeated. Entries after “also recorded” stand apart in the source; their conditions may differ.

The test system of assay [1] is R493X progranulin. The assay can be described thus: Read-through of progranulin R493X nonsense mutation in transfected N2A cells (FLAG Western blot). It counts as cell-based, human. Conditions: for rescued R493X expression / read-through efficiency as % of wild-type progranulin (summary statement): N2A cell culture, conditions not restated; for read-through, FLAG band intensity as percentage of WT progranulin: dose response, maximal concentration 2000 μg/ml; for read-through, FLAG band intensity as percentage of WT progranulin / read-through of R493X progranulin (FLAG-positive bands in Western blot): 24 hours; for read-through of R493X progranulin (FLAG-positive bands in Western blot): N2A cells transfected with R493X progranulin, two concentrations of each compound. The source says: (§1) The WT progranulin plasmid with a C-terminal FLAG tag (pC-Flag-PGRN-WT) was purchased from Sino Biological Inc. (Cat. HG10826-CF). Three nonsense mutations, Q125X, R229X and R493X, were generated using Q5 site-directed mutagenesis kit (New England Biolabs Inc., Cat. E0554S) to introduce a single nucleotide substitution in the WT progranulin gene (FIG. 1A). The WT progranulin with an N-terminal HA tag (HA-PGRN) was also generated by subcloning using the p3xHA vector (58) and HindIII and BamHI sites.
(§2) N2A cells were maintained in DMEM (Sigma, D5796) supplemented with 10% fetal bovine serum, 100 unit/mL penicillin, and 100 μg/mL streptomycin. Transient transfection was performed using Lipofectamine 2000 (Invitrogen, Life Technologies, Grand Island, N.Y., USA). […] was used for each well of 6-well plate unless otherwise described. After 6 hours transfection, fresh medium containing aminoglycoside at indicated concentrations was added to cells. Cells were applied to following experiments after exposed to drugs at certain time points. All cells were kept in a humidified incubator at 37° C. under 5% CO2/95% air.
Eleven aminoglycosides were tested in this study: G418 (Sigma-Aldrich, Cat. 4727878001), gentamicin (Sigma-Aldrich, Cat. G1397), Kanamycin (Gold Biotechnology, Cat. K-120-25), Streptomycin (Sigma-Aldrich, Cat. S9137), Amikacin (Alta Aesar, Cat. J67496), Tobramycin (Alta Aesar, Cat. J62995), Apramycin (Sigma-Aldrich, Cat. A2024), Neomycin B (Sigma-Aldrich, Cat. N6386), Netilmicin (Alta Aesar, Cat. J66302), Paromomycin (Alta Aesar, Cat. J61274), Sisomicin (Sigma-Aldrich, Cat. S7796). PTC124 was purchased from Med Chem Express (Cat. 775304-57-9).
Cells were lysed in RIPA buffer (Millipore Sigma, Cat. 20-188), centrifuged at 1000 g for 10 mins to remove debris, and then subjected to SDS electrophoresis. After electrophoresis, gels were proceeded for transferring onto nitrocellulose membranes. The membranes were then blocked with 5% milk in TBST (100 mM TRIS-HCl, pH7.5, 0.9% NaCl, 0.1% Tween-20) and incubated with indicated primary antibodies in the same solution. All immunoblotting images were acquired using a BioRad ChemiDoc MP system.
(§3) WT progranulin and three plasmids each with a single nonsense mutation (Q125X, Y229X, or R493X) and a C-terminal Flag tag (FIG. 1A) were constructed. A full-length protein must be generated for the FLAG to be detected, thus a truncated progranulin will not be detected by FLAG Western blotting. If read-through of the progranulin PTC occurs, then progranulin will be detectable by FLAG Western blotting.
R493X, which is the most common nonsense mutation in progranulin-mediated familial FTD (8, 31), was chosen to test whether aminoglycosides could induce read-through. N2A cells were transfected with the indicated plasmid, allowed to recover for 6 hours, and fresh media containing the aminoglycoside at the indicated concentrations was added to the cells for 24 hours. Cells were lysed and analyzed by Western blotting to determine the amount of progranulin protein. […] No signal was detected in lysate from cells transfected with R493X in the absence of any compounds, serving as a negative control. The FLAG-tagged WT progranulin was included as a positive control to define the expected progranulin-FLAG amount. […] It is noted that G418 induced a stronger effect than gentamicin.
A series of G418 and gentamicin concentrations were tested to examine the dose response of the read-through effect. N2A cells were transfected with the R493X progranulin plasmid, allowed to recover for 6 hours, fresh media containing either G418 or gentamicin at 100, 500, 1000 or 2000 μg/ml was added to cells for 24 hours. Cells were then lysed and lysates analyzed by Western blotting. The read-through was dose-dependent with the highest progranulin-FLAG signal corresponding to the highest concentration of compound (FIG. 2A). […]
On the technique in general: Immunoblotting shows a protein as a band on a membrane.

Assay [2] deals with R493X progranulin mRNA. Put plainly: Full-length progranulin R493X mRNA level in N2A cells (qPCR). It is filed as cell-based, human. Conditions: with G418 treatment, qPCR (FIG. 5). As to the method:
N2A cells were exposed to G418 treatment for 24 hours with indicated concentrations after transfection. Primers specific for full length PGRN mRNA were used for qPCR. All results were normalized to full length WT progranulin in non-treated cells. N.S.: no significance. **, p<0.01; ***, p<0.001.
Total RNA was extracted with Aurum total RNA mini kit (BioRad, Cat. 732-6820), and cDNA was generated with SuperScript III first-strand synthesis system for RT-PCR (Invitrogen, Cat. 18080-051). Quantitive PCR was performed using SYBR Green (ThermoScientific, Cat. 4309155). Beta-actin primers: forward 5′-AGAGCTATGAGCTGCCTGAC-3′ (SEQ ID NO: 1); reverse 5′-GGATGTCAACGTCACACTTC-3′(SEQ ID NO: 2). Primers used for full length progranulin mRNA (including flag encoding sequence) is: forward 5′-CGTGAAGGCTTGATCCTGCGAGA-3′ (SEQ ID NO: 3), reverse 5′-CTTATCGTCATCCTTGTAATC-3′ (SEQ ID NO: 4). Annealing temperature for both beta-actin and progranulin qPCR reaction were 60° C.
In addition to inducing read-through, it has been reported that aminoglycosides can also stabilize mRNAs, which could enhance the read-through effect (35, 36). Therefore, qPCR was used to determine the mRNA levels in the absence and presence of G418.
On the technique in general: Real-time PCR tracks product formation cycle by cycle.

In assay [3] the test system is R493X progranulin. Put plainly: Read-through of progranulin R493X nonsense mutation in transfected N2A cells (FLAG Western blot). It is filed as cell-based, human. Conditions: time course, 1000 μg/ml G418, 12 hours.
The subject of assay [4] is Q125X progranulin. The assay can be described thus: Read-through of progranulin Q125X nonsense mutation in transfected N2A cells (FLAG Western blot). It counts as cell-based, human. Conditions: 24 hours.
Excerpt: as §1
(§4) N2A cells were maintained in DMEM (Sigma, D5796) supplemented with 10% fetal bovine serum, 100 unit/mL penicillin, and 100 μg/mL streptomycin. […]
as §3
(§5) Whether G418 or gentamicin could induce read-through of two additional progranulin nonsense mutations (Q125X or Y229X) and a FUS nonsense mutation R495X that has been identified in juvenile patients of the related neurodegenerative disease ALS was also tested.

Assay [5] has as its system Y229X progranulin. Put plainly: Read-through of progranulin Y229X nonsense mutation in transfected N2A cells (FLAG Western blot). It counts as cell-based, human. The following applies: 24 hours.
Excerpt: as §1, §4, §3, §5

Assay [6] has as its system R495X FUS. Put plainly: Read-through of FUS R495X nonsense mutation in transfected N2A cells (FLAG Western blot). Conditions: three concentrations, 24 hours. It counts as cell-based. As to the method:
Examination of G418 on the R495X mutation of FUS responsible for familial ALS. WT or R495X FUS was tagged with FLAG at the N-terminus. N2A cells were transfected with WT or R495X FUS, allowed to recover, and treated with three concentrations of G418 for 24 hours. Cells were harvested and cell lysates were subjected to SDS-PAGE and Western analysis using anti-FLAG (top) and anti-actin (lower) antibodies. The slightly higher band is WT FUS and the lower band is R495X truncated FUS.
as §2, with “air. […]” for “air.”
as §5

Assay [7] relates to LAMB3 PTC. Conditions: reported (ref. 27); cited from earlier work.

With `CN[C@@H]1[C@@H](O)[C@@H](O[C@@H]2[C@@H](O)[C@H](O[C@H]3O[C@H]([C@@H](C)O)[C@@H](O)[C@H](O)[C@H]3N)[C@@H](N)C[C@H]2N)OC[C@]1(C)O` [G418], in assay [1], the “rescued R493X expression / read-through efficiency as % of wild-type progranulin (summary statement)” value is given as roughly 50%; the “read-through, FLAG band intensity as percentage of WT progranulin” value was 33.8% and > 30%. In addition, the “mRNA level of R493X as % of WT progranulin” value in assay [2] is reported as roughly 60%. Further, in assay [3], the “read-through as % of the WT control” value is “≈ 5%”.

As for `O=C(O)c1cccc(-c2noc(-c3ccccc3F)n2)c1` [PTC124], the “read-through of R493X progranulin (FLAG-positive bands in Western blot)” value (from here on “read-through of R493X progranulin”) in assay [1] is on record as “did not have any detectable read-through effect”.

On to `NCC[C@H](O)C(=O)N[C@@H]1C[C@H](N)[C@@H](O[C@H]2O[C@H](CN)[C@@H](O)[C@H](O)[C@H]2O)[C@H](O)[C@H]1O[C@H]1O[C@H](CO)[C@@H](O)[C@H](N)[C@H]1O` [amikacin], for which the “read-through of R493X progranulin” value in assay [1] is given as “did not have any detectable read-through effect”.

For the compound `CN[C@@H]1[C@@H](O[C@H]2O[C@H](CO)[C@@H](N)[C@H](O)[C@H]2O)OC2C[C@@H](N)[C@@H](O[C@H]3[C@H](O)[C@@H](O)[C@H](N)C[C@@H]3N)OC2[C@@H]1O` (some centres unmarked) [apramycin], the “read-through of R493X progranulin” value in assay [1] is given as “did not have any detectable read-through effect”.

`NC[C@@H]1O[C@H](O[C@H]2[C@@H](O)[C@H](O[C@@H]3[C@@H](O)[C@H](N)C[C@H](N)[C@H]3O[C@H]3O[C@H](CN)[C@@H](O)[C@H](O)[C@H]3N)O[C@@H]2CO)[C@H](N)[C@@H](O)[C@@H]1O` [neomycin B]: the “read-through of R493X progranulin” value in assay [1] was “did not have any detectable read-through effect”.

For the compound `CCN[C@@H]1C[C@H](N)[C@@H](O[C@H]2OC(CN)=CC[C@H]2N)[C@H](O)[C@H]1O[C@H]1OC[C@](C)(O)[C@H](NC)[C@H]1O` [netilmicin], the “read-through of R493X progranulin” value in assay [1] was “did not have any detectable read-through effect”.

Turning to `NC[C@@H]1O[C@H](O[C@H]2[C@@H](O)[C@H](O[C@@H]3[C@@H](O)[C@H](N)C[C@H](N)[C@H]3O[C@H]3O[C@H](CO)[C@@H](O)[C@H](O)[C@H]3N)O[C@@H]2CO)[C@H](N)[C@@H](O)[C@@H]1O` [paromomycin], in assay [1], the “read-through of R493X progranulin” value was “did not have any detectable read-through effect”.

Take `CN[C@@H]1[C@@H](O)[C@@H](O[C@@H]2[C@@H](O)[C@H](O[C@H]3OC(CN)=CC[C@H]3N)[C@@H](N)C[C@H]2N)OC[C@]1(C)O` [sisomicin]: the “read-through of R493X progranulin” value in assay [1] was “did not have any detectable read-through effect”.

For the compound `[H]/N=C(/N)N[C@H]1[C@H](O)[C@@H](O)[C@H](O[C@@H]2O[C@@H](C)[C@](O)(C=O)[C@H]2O[C@@H]2O[C@@H](CO)[C@H](O)[C@@H](O)[C@@H]2NC)[C@@H](N/C(N)=N\[H])[C@@H]1O` [streptomycin], the “read-through of R493X progranulin” value in assay [1] is “did not have any detectable read-through effect”.

As for `NC[C@H]1O[C@H](O[C@H]2[C@H](O)[C@@H](O[C@H]3O[C@H](CO)[C@@H](O)[C@H](N)[C@H]3O)[C@H](N)C[C@@H]2N)[C@H](N)C[C@@H]1O` [tobramycin], the “read-through of R493X progranulin” value in assay [1] was “did not have any detectable read-through effect”.

Take gentamicin: the “rescued R493X expression / read-through efficiency as % of wild-type progranulin (summary statement)” value in assay [1] is “less than 10%”. For the same compound, in assay [1], the “read-through of R493X progranulin” value is “induced FLAG bands; also recorded: induced read-through”. In assay [1], the “read-through, FLAG band intensity as percentage of WT progranulin” value was 8.6%. Further, the “read-through of Q125X progranulin (full-length protein by FLAG antibody)” value in assay [4] is on record as “did not induce read-through”; in assay [4] (listed as Gentamicin) it was “no readthrough effect”. In addition, the figures for the “read-through of Y229X progranulin (full-length protein by FLAG antibody)” value in assay [5] and in assay [5] (listed as Gentamicin) were “did not induce read-through” and “no readthrough effect”, respectively. For the same compound, the “read-through of FUS R495X (full-length protein)” value is on record as “did not induce read-through” in assay [6] and “did not induce readthrough” in assay [6] (listed as Gentamicin). Further, the “read-through of the LAMB3 PTC” value in assay [7] is given as 30-50%.

The values are drawn from patent US11560559B2, “Inducing production of full-length progranulin (GRN) from nucleotides including mutations containing a premature stop codon (PTC)” (University of Kentucky Research Foundation, priority 2018, dated 2023).
